Data on 25 compounds can be found in US20250177533A1, “PHOTODYNAMIC THERAPY AND DIAGNOSIS” (RMW CHO Group Limited, priority 2021, published 2025).

Where two headings read alike, the source gives them in different places.

Data set [1] relates to Human ovarian cancer cell line SKOV3. Nature of the data set: Phototoxicity in SKOV3 cells (660 nm laser or LED, AlamarBlue viability). Conditions: Homo sapiens, SK-OV-3, light or radiation study, SKOV3, 24 h uptake, viability 24 h later. In kind it is cell-based. The source says:
All data are shown as mean±SD (where appropriate).
Media was then replaced with fresh media containing AlamarBlue, and % viable cells remaining assessed as above. […] All measurements were made in quadruplicate.
A general note: Alamar Blue is a resazurin reagent that responds to reducing activity.

Data set [2] has the same test system. As to conditions: 24 h.
Experimental: Serial dilutions were prepared in cell culture media (Dulbecco's Modified Eagle Medium/Nutrient Mixture F-12 (DMEM/F-12)) supplemented with 10% v/v Fetal Bovine Serum, 100 U/mL penicillin, 100 μg/mL streptomycin and the same excipient solution at a constant 1:55 dilution.
Human ovarian cancer cell line SKOV3 (ATCC #HTB-77) was maintained in Dulbecco's Modified Eagle Medium/Nutrient Mixture F-12 (DMEM/F-12), supplemented with 10% v/v Fetal Bovine Serum, 100 U/mL penicillin and 100 μg/mL streptomycin. Monolayer cultures were grown in a humidified incubator at 37° C. with 5% CO2. Once cells had reached ˜80% confluence, spent media was replaced with media containing photosensitizer at the required concentration and cells were incubated for the desired period of time to allow photosensitizer uptake.
Spectral absorbance and viability measurements were normalized in the range 0-100%, with a minimum of 0 and a maximum value determined from the dataset. Dose response was determined using a sigmoidal four-point non-linear regression with variable slope, and IC10 or IC90 calculated for each compound. All data are shown as mean±SD (where appropriate).
On reaching ˜60% confluence, media was aspirated and replaced with fresh media containing the relevant phyllochlorin analogue from 0-100 μM in DMSO.
Untreated cells were used as a control. […] All measurements were made in quadruplicate.
The phototoxicity and inherent cytotoxicity (i.e. “dark toxicity”) of phyllochlorin analogues were assessed as previously using SKOV3 ovarian cancer cells. For comparative purposes, phyllochlorin analogues were compared against chlorin e4 disodium and Talaporfin sodium, a clinically approved photosensitizer used in the photodynamic treatment of lung cancers.
[3] abbreviates: 660 nm laser 50 mW/cm^2 for 5 mins (15 J/cm^2), read-out: Phototoxicity μM (IC90).

For orientation: IC90 means the point of the concentration-response curve where the effect stands at 90%. Take `CCC1=C(C)c2cc3[nH]c(cc4nc(c(C)c5cc(C)c(cc1n2)[nH]5)[C@@H](CCC(=O)N(C)CCCO)[C@@H]4C)c(C)c3C(C)OCCCS[C@@H]1O[C@H](CO)[C@@H](O)[C@H](O)[C@H]1O` (stereo partly drawn) [Compound 2, phyllochlorin N-3-hydroxypropyl-N-methyl propylamide propyloxythio-D-glucose]: the IC90 in data set [1] (setting [3]) came out at 0.03 µM. Also, the “Dark toxicity μM (IC10)” value in data set [2] was 7.640 µM.
As to `CCC1=C(C)c2cc3[nH]c(cc4nc(c(C)c5cc(C)c(cc1n2)[nH]5)[C@@H](CCC(=O)OC)[C@@H]4C)c(C)c3CO` [Compound 3, phyllochlorin 13-hydroxymethyl methyl ester], in data set [1] (setting [3]), the IC90 was 0.308 µM. Besides, the “Dark toxicity μM (IC10)” value in data set [2] is 45.720 µM.
In the same order, the values of `CCC1=C(C)c2cc3[nH]c(cc4nc(c(C)c5cc(C)c(cc1n2)[nH]5)[C@@H](CCC(=O)OC)[C@@H]4C)c(C)c3CO[C@@H]1O[C@H](CO)[C@@H](O)[C@H](O)[C@H]1O` [Compound 4, phyllochlorin 13-hydroxymethyl-β-D-glucoside ether methyl ester] are 0.099 µM and 0.775 µM.
The like results for `CCC1=C(C)c2cc3[nH]c(cc4nc(c(C)c5cc(C)c(cc1n2)[nH]5)[C@@H](CCC(=O)N(C)CCCO)[C@@H]4C)c(C)c3CO[C@@H]1O[C@H](CO)[C@@H](O)[C@H](O)[C@H]1O` [Compound 6, phyllochlorin N-3-hydroxypropyl-N-methyl-propylamide 13-hydroxymethyl-β-D-glucoside ether] were, in that order, 0.084 µM and 0.528 µM.
The like results for `CCC1=C(C)c2cc3[nH]c(cc4nc(c(C)c5cc(C)c(cc1n2)[nH]5)[C@@H](CCC(=O)OC)[C@@H]4C)c(C)c3CO[C@@H]1O[C@H](CO)[C@@H](O[C@H]2O[C@H](CO)[C@@H](O)[C@H](O)[C@H]2O)[C@H](O)[C@H]1O` [Compound 8, phyllochlorin 13-hydroxymethyl-β-D-maltose ether methyl ester] were, in that order, 0.665 µM and 7.442 µM.
On to `CCC1=C(C)c2cc3[nH]c(cc4nc(c(C)c5cc(C)c(cc1n2)[nH]5)[C@@H](CCC(=O)N(C)C[C@H](O)[C@@H](O)[C@H](O)[C@H](O)CO)[C@@H]4C)c(C)c3CO[C@@H]1O[C@H](CO)[C@@H](O)[C@H](O)[C@H]1O` [Compound 10, phyllochlorin N-meglumine-propylamide-13-hydroxymethyl-β-D-glucoside ether], for which the IC90 in data set [1] (setting [3]) turned out to be 1.5 µM. Moreover, the “Dark toxicity μM (IC10)” value in data set [2] amounted to 4.732 µM.
As to `CCC1=C(C)c2cc3[nH]c(cc4nc(c(C)c5cc(C)c(cc1n2)[nH]5)[C@@H](CCC(=O)N(C)CCCO[C@@H]1O[C@H](CO)[C@@H](O)[C@H](O)[C@H]1O)[C@@H]4C)c(C)c3CO[C@@H]1O[C@H](CO)[C@@H](O)[C@H](O)[C@H]1O` [Compound 12, phyllochlorin 13-hydroxymethyl-β-D-glucoside ether-β-D-glucosyl-N-methylpropylamide], in data set [1] (setting [3]), the IC90 amounted to 0.353 µM. In data set [2], the “Dark toxicity μM (IC10)” value worked out at 2.466 µM.
The like results for `CCC1=C(C)c2cc3[nH]c(cc4nc(c(C)c5cc(C)c(cc1n2)[nH]5)[C@@H](CCC(=O)N(CCOCCOCCOC)CCOCCOCCOC)[C@@H]4C)c(C)c3CO` [Compound 13, phyllochlorin 13-hydroxymethyl-N,N-bis-PEG3OMe propylamide] were, in that order, 0.421 µM and 60.750 µM.
In the same order, the values of `CCC1=C(C)c2cc3[nH]c(cc4nc(c(C)c5cc(C)c(cc1n2)[nH]5)[C@@H](CCC(=O)N(CCOCCOCCOC)CCOCCOCCOC)[C@@H]4C)c(C)c3CO[C@@H]1O[C@H](CO)[C@@H](O)[C@H](O)[C@H]1O` [Compound 14, phyllochlorin 13-hydroxymethyl-β-D-glucoside ether-N,N-bis-PEG3OMe propylamide] are 0.186 µM and 0.626 µM.
The like results for `CCC1=C(C)c2cc3[nH]c(cc4nc(c(C)c5cc(C)c(cc1n2)[nH]5)[C@@H](CCC(=O)NCCOCCO[C@@H]1O[C@H](CO)[C@@H](O)[C@H](O)[C@H]1O)[C@@H]4C)c(C)c3CO[C@@H]1O[C@H](CO)[C@@H](O)[C@H](O)[C@H]1O` [Compound 16, phyllochlorin 13-hydroxymethyl-β-D-glucoside ether-β-D-1-glucose-2-ethoxy-N-ethanamine] were, in that order, 1.82 µM and 5.929 µM.
Regarding `CCC1=C(C)c2cc3[nH]c(cc4nc(c(C)c5cc(C)c(cc1n2)[nH]5)[C@@H](CCC(=O)O)[C@@H]4C)c(C)c3CO` [Compound 17, phyllochlorin 13-hydroxymethyl], in data set [1] (setting [3]), the IC90 is 0.891 µM. In addition, in data set [2], the “Dark toxicity μM (IC10)” value was 25.000 µM.
The like results for `CCC1=C(C)c2cc3[nH]c(cc4nc(c(C)c5cc(C)c(cc1n2)[nH]5)[C@@H](CCC(=O)N(C)CCCOCCC[P+](c1ccccc1)(c1ccccc1)c1ccccc1)[C@@H]4C)c(C)c3CO` [Compound 18] were, in that order, 0.007 µM and 4.393 µM.
The like results for `CCC1=C(C)c2cc3[nH]c(cc4nc(c(C)c5cc(C)c(cc1n2)[nH]5)[C@@H](CCC(=O)N(C)CCCOCCC[P+](c1ccccc1)(c1ccccc1)c1ccccc1)[C@@H]4C)c(C)c3CO[C@@H]1O[C@H](CO)[C@@H](O)[C@H](O)[C@H]1O` [Compound 19] were, in that order, 0.018 µM and 0.090 µM.
The like results for `CCC1=C(C)c2cc3[nH]c(cc4nc(c(C)c5cc(C)c(cc1n2)[nH]5)[C@@H](CCC(=O)OC)[C@@H]4C)c(C)c3C(C)OCCC[n+]1ccccc1` (some centres unmarked) [Compound 20, phyllochlorin methyl ester 3-pyridinium bromide propyl ether] were, in that order, 0.003 µM and 1.998 µM.
`CCC1=C(C)c2cc3[nH]c(cc4nc(c(C)c5cc(C)c(cc1n2)[nH]5)[C@@H](CCC(=O)OC)[C@@H]4C)c(C)c3C(C)OCCOCC[n+]1ccccc1` (some centres unmarked) [Compound 22, phyllochlorin methyl ester 2-(2-pyridiniumethoxy)ethyl ether chloride]: in data set [1] (setting [3]), the IC90 was found to be 0.004 µM. Moreover, the “Dark toxicity μM (IC10)” value in data set [2] came out at 2.228 µM.
Turning to `CCC1=C(C)c2cc3[nH]c(cc4nc(c(C)c5cc(C)c(cc1n2)[nH]5)[C@@H](CCC(=O)OC)[C@@H]4C)c(C)c3C(C)OCCOCC[P+](c1ccccc1)(c1ccccc1)c1ccccc1` (some centres unmarked) [Compound 23, phyllochlorin methyl ester 2-(2-triphenylphosphoniumethoxy)ethyl ether chloride], in data set [1] (setting [3]), the IC90 was found to be 0.012 µM. In addition, in data set [2], the “Dark toxicity μM (IC10)” value was 3.086 µM.
In the same order, the values of `CCC1=C(C)c2cc3[nH]c(cc4nc(c(C)c5cc(C)c(cc1n2)[nH]5)[C@@H](CCC(=O)N(C)CCOCCOCCOCCOCCOCCOC)[C@@H]4C)c(C)c3CO` [Compound 24, phyllochlorin 13-hydroxymethyl N-methyl-N-3,6,9,12,15,18-hexaoxanonadecyl propylamide] are 0.503 µM and 41.190 µM.
As to `CCC1=C(C)c2cc3[nH]c(cc4nc(c(C)c5cc(C)c(cc1n2)[nH]5)[C@@H](CCC(=O)N(C)CCOCCOCCOCCOCCOCCOC)[C@@H]4C)c(C)c3CO[C@@H]1O[C@H](CO)[C@@H](O)[C@H](O)[C@H]1O` [Compound 25, phyllochlorin 13-hydroxymethyl-β-D-glucoside ether-β-D-glucosel-N-methyl-N-3,6,9,12,15,18-hexaoxanonadecyl propylamide], the IC90 in data set [1] (setting [3]) came to 0.146 µM. Also, in data set [2], the “Dark toxicity μM (IC10)” value came to 0.279 µM.
The like results for `CCC1=C(C)c2cc3[nH]c(cc4nc(c(C)c5cc(C)c(cc1n2)[nH]5)[C@@H](CCC(=O)N(C)CCCS[C@@H]1O[C@H](CO)[C@@H](O)[C@H](O)[C@H]1O)[C@@H]4C)c(C)c3C(C)O` (stereo partly drawn) [Compound 26, 13-hydroxyethylphyllochlorin-β-D-1-thioglucose-N-methylpropylamide] were, in that order, 0.248 µM and 21.550 µM.
The like results for `CCC1=C(C)c2cc3[nH]c(cc4nc(c(C)c5cc(C)c(cc1n2)[nH]5)[C@@H](CCC(=O)O)[C@@H]4C)c(C)c3C(C)O` (some centres unmarked) [Compound 27, phyllochlorin 13-(ethyl-1-alcohol)] were, in that order, 0.397 µM and 10.520 µM.
Consider `CCC1=C(C)c2cc3[nH]c(cc4nc(c(C)c5cc(C)c(cc1n2)[nH]5)[C@@H](CCC(=O)OC)[C@@H]4C)c(C)c3C(C)OCCC[n+]1ccc(C)cc1` (some centres unmarked) [Compound 28], for which the IC90 in data set [1] (setting [3]) turned out to be 0.003 µM. Also, the “Dark toxicity μM (IC10)” value in data set [2] stood at 4.877 µM.
For `CCC1=C(C)c2cc3[nH]c(cc4nc(c(C)c5cc(C)c(cc1n2)[nH]5)[C@@H](CCC(=O)OC)[C@@H]4C)c(C)c3COC(=O)NCCOC` [Compound 29, phyllochlorin methyl ester 13-(2-methoxyethyl)carbamate], in data set [1] (660 nm LED panel 50 mW/cm^2 for 5 mins (15 J/cm^2), read-out: Phototoxicity μM (IC90), measured by LED), the IC90 came to 0.0867 µM. The “Dark toxicity μM (IC10)” value in data set [2] was 30.000 µM.
In the case of `CCC1=C(C)c2cc3[nH]c(cc4nc(c(C)c5cc(C)c(cc1n2)[nH]5)[C@@H](CCC(=O)OC)[C@@H]4C)c(C)c3C=O` [Compound 30, phyllochlorin 13-formyl methyl ester], in data set [1] (setting [3]), the IC90 is 2.27 µM. Moreover, the “Dark toxicity μM (IC10)” value in data set [2] stood at 45.760 µM.
The like results for `CCC1=C(C)c2cc3[nH]c(cc4nc(c(C)c5cc(C)c(cc1n2)[nH]5)[C@@H](CCCO)[C@@H]4C)c(C)c3CO` [Compound 32, phyllochlorin 13-hydroxymethyl-3-hydroxypropyl] were, in that order, 0.0724 µM and 30.850 µM.
In the same order, the values of `CCC1=C(C)c2cc3[nH]c(cc4nc(c(C)c5cc(C)c(cc1n2)[nH]5)[C@@H](CCCO[C@@H]1O[C@H](CO)[C@@H](O)[C@H](O)[C@H]1O)[C@@H]4C)c(C)c3CO[C@@H]1O[C@H](CO)[C@@H](O)[C@H](O)[C@H]1O` [Compound 33, phyllochlorin 13-hydroxymethyl-3-hydroxypropyl-bis-β-D-glucoside ether] are 0.765 µM and 14.080 µM.
